Literature values in patent US20220409679A1, “COMPOSITIONS AND METHODS WITH A PROBIOTIC AND A NUTRIENT AND/OR MINERAL FOR THE PREVENTION OR TREATMENT OF MASTITIS” (SOCIETE DES PRODUITS NESTLE S.A., priority 2019, published 2022).

What was measured:
mastitis in cows = conditions: O'Rourke 2009; for symptoms associated with mastitis: supplementation
[1] = O'Rourke 2009

Structure (SMILES) | immune system (mastitis in cows) | symptoms associated with mastitis (mastitis in cows) | antibacterial activity in milk [1]
[Cu] [copper] | enhance the immune system | reduce mastitis symptoms in cows | –
[Se] [selenium] | – | improves symptoms associated with mastitis in cows | improves antibacterial activity in milk
[Zn] [zinc] | enhance the immune system | reduce mastitis symptoms in cows | –
